Values after ≈ are worked out from the molar mass of the structure shown. Like-named read-outs stand apart in the source and are kept apart here.
What was measured:
[1] = Solubility by shake flask method (24 h, HPLC); type: physicochemical; conditions: n=3 mean; for solubility at 24 h: thermodynamic from solid, read-out: Solubility Measurements (mean value) (24 h)
Method: The solubility of compounds of formula (Ia) obtained according to Example 2.12. and compounds of formula (II-A), (II-Ax) and (II-B) obtained respectively according to Examples 3.2. and 4.2., was determined in different media while using the shake flask method. An excess of solids, for (II-Ax) and (II-B) equivalent to a concentration of compound of formula (I) of 5 mg/mL, and for (II-A) equivalent to a concentration of compound of formula (I) of 1 mg/mL was suspended in 5 mL of buffer/biorelevant media as specifically described in Table 1 and incubated in a sealed glass vial (10 mL) for 24 h at room temperature or 37° C. (as indicated below) in a climatic chamber equipped with a rotary mixer. The 24 h time point was assumed to have reached solubility, at which time the suspension was filtered through a 0.45-μm ultra free filter (Merck Millipore) and the drug content was determined by HPLC. The solubility of compounds (Ia), (II-A), (II-Ax) and (II-B) was determined in triplicate (n=3) and mean value calculated.
The media tested are respectively water, phosphate buffer, FasSGF, FASSIF-V2 and FeSSIF-V2. FasSG is fasted condition gastric fluid. FasSGF is prepared at pH 1.6 and contains 0.08 mM Taurocholate, 0.02 mM phospholipids, 34 mM sodium and 59 mM chloride. FaSSIF-V2 and FeSSIF-V2 are Fasted and Fed State Biorelevant Media, respectively. FaSSIF-V2 is prepared at pH 6.5 and contains 3 mM Taurocholate, 0.2 mM Phospholipids, 106 mM Sodium, 69 mM Chloride and 19 mM Maleic acid. FeSSIF-V2 is prepared at pH 5.8 and contains 10 mM Taurocholate, 2 mM Phospholipids, 0.8 mM Oleate, 5 mM Glycerol monoleate, 218 mM Sodium, 125 mM Chloride and 55 mM Maleic acid.

[2] = In vivo bioavailability of oral suspensions of prodrugs, plasma LC/MS; conditions: male Sprague-Dawley rats, single oral dose of suspension corresponding to 3 mg/kg of compound (I), plasma 0.12 h to 8 h
Method: The formulation vehicle used in the following suspension is a mixture of 1% (w/v) methylcellulose (400 cps), 0.1% (weight/volume) TWEEN® 80, 0.1% (w/v) Antifoam 1510 US in 25 mM phosphate buffer pH 3.0 in water. […]
The solution is homogenized by sonication during 1 minute, repeated 3 times.
Three male Sprague-Dawley rats were administered the respective suspensions of (II-A), (II-B) and (II-C), as described in paragraph 7.1 above, at a single oral dose corresponding to 3 mg/kg of compound of formula (I).
Plasma samples were collected 0.12 h, 0.25 h, 0.5 h, 1 h, 2 h, 4 h and 8 h following dosing.
Plasma concentrations of compound (I) and respective compounds (II-A), (II-B) and (II-C) were quantified by LC/MS (liquid chromatography/mass spectrometry).

[3] = phosphate buffer, pH 4, aqueous buffer, Phosphate buffer (50 mM), pH 4.0, RT
[4] = water, pH 7, water, Water, pH 7.0, RT
[5] = FaSSIF-V2, 37 °C, pH 6.5, fassif, FaSSIF-V2, pH 6.5, 37° C.
[6] = FasSGF, 37 °C, pH 1.6, fassgf or other biorelevant, FasSGF, pH 1.6, 37° C.
[7] = FeSSIF-V2, 37 °C, pH 5.8, fessif, FeSSIF-V2, pH 5.8, 37° C.
[8] = phosphate buffer, pH 6.5, aqueous buffer, Phosphate buffer (50 mM), pH 6.5, RT

Row | Solubility Measurements (mean value) (24 h) ([1]; FaSSIF-V2, pH 6.5, 37° C.) | solubility at 24 h [1, 3] | solubility at 24 h [1, 4] | cleavage of prodrug into compound of formula (I) in plasma [2] | solubility at 24 h [1, 5] | solubility at 24 h [1, 6] | solubility at 24 h [1, 7] | solubility at 24 h [1, 8] | Solubility Measurements (mean value) (24 h) ([1]; FeSSIF-V2, pH 5.8, 37° C.) | Structure (SMILES)
1 | ~1100 µg/mL | ~1000 µg/mL | ~1000 µg/mL | completely cleaved |  |  |  |  |  | C[C@H]1c2cccc(C(C)(C)O)c2C[C@H](COP(=O)(O)O)N1C(=O)Cc1c(Cl)ccc2c1c(Cl)nn2C [(II-A), [(1S,3R)-2-[2-(3,5-dichloro-1-methyl-indazol-4-yl)acetyl]-5-(1-hydroxy-1-methyl-ethyl)-1-methyl-3,4-dihydro-1H-isoquinolin-3-yl]methyl dihydrogen phosphate]
2 |  | ~850 µg/mL (≈ 1480 µM) | ~40 µg/mL (≈ 69.5 µM) | partially cleaved | ~30 µg/mL (≈ 52.1 µM) | ~4800 µg/mL (≈ 8340 µM) | ~900 µg/mL (≈ 1560 µM) | ~70 µg/mL (≈ 122 µM) |  | CC(C)[C@H](N)C(=O)OC[C@H]1Cc2c(cccc2C(C)(C)O)[C@H](C)N1C(=O)Cc1c(Cl)ccc2c1c(Cl)nn2C [(II-B), [(1S,3R)-2-[2-(3,5-dichloro-1-methyl-indazol-4-yl)acetyl]-5-(1-hydroxy-1-methyl-ethyl)-1-methyl-3,4-dihydro-1H-isoquinolin-3-yl]methyl (2S)-2-amino-3-methyl-butanoate]
3 |  | < 1 µg/mL | < 1 µg/mL |  | ~1.5 µg/mL (≈ 3.15 µM) | < 1 µg/mL | ~4 µg/mL (≈ 8.4 µM) | < 1 µg/mL |  | C[C@H]1c2cccc(C(C)(C)O)c2C[C@H](CO)N1C(=O)Cc1c(Cl)ccc2c1c(Cl)nn2C [(Ia), 2-(3,5-dichloro-1-methyl-indazol-4-yl)-1-[(1S,3R)-3-(hydroxymethyl)-5-(1-hydroxy-1-methyl-ethyl)-1-methyl-3,4-dihydro-1H-isoquinolin-2-yl]ethanone]
4 | >5000 µg/mL |  |  |  |  |  |  | > 5000 µg/mL | >5000 µg/mL | C[C@H]1c2cccc(C(C)(C)O)c2C[C@H](COP(=O)(O)O)N1C(=O)Cc1c(Cl)ccc2c1c(Cl)nn2C [(II-Ax), [(1S,3R)-2-[2-(3,5-dichloro-1-methyl-indazol-4-yl)acetyl]-5-(1-hydroxy-1-methyl-ethyl)-1-methyl-3,4-dihydro-1H-isoquinolin-3-yl]methyl dihydrogen phosphate]
5 |  |  |  | completely cleaved |  |  |  |  |  | CC(C)C[C@H](N)C(=O)OC[C@H]1Cc2c(cccc2C(C)(C)O)[C@H](C)N1C(=O)Cc1c(Cl)ccc2c1c(Cl)nn2C [(II-C), [(1S,3R)-2-[2-(3,5-dichloro-1-methyl-indazol-4-yl)acetyl]-5-(1-hydroxy-1-methyl-ethyl)-1-methyl-3,4-dihydro-1H-isoquinolin-3-yl]methyl (2S)-2-amino-4-methyl-pentanoate]
